From ChEMBL document CHEMBL1201862, “PubChem BioAssay data set” (2004)
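Five compound concentrations were applied to cells in 96-well plates for 48 hours; endpoints were derived by simple linear interpolation of the resulting dose-response curve. The concentration for 50% growth inhibition is given as GI50.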 Calls of active or inactive are those of the source. Rule as the data show it: active = GI50 up to about 1.1 µM and inactive = higher.

Tests used:
Experiment in all cases: inhibition of tumour cell growth, NCI panel, 48 h
[1] = system: 786-0
[2] = system: BT-549
[3] = system: COLO 205
[4] = system: ACHN
[5] = system: K562
[6] = system: UACC-62
[7] = system: Malme-3M
[8] = system: CAKI-1
[9] = system: SNB-75
[10] = system: UO-31
[11] = system: MDA-N
[12] = system: M14
[13] = system: DU-145
[14] = system: DLD-1
[15] = system: IGROV-1
[16] = system: SF-295
[17] = system: Hs-578T
[18] = system: UACC-257
[19] = system: RPMI-8226
[20] = system: SK-MEL-5

For `CN1c2c(O)nc(N)nc2NCC1CCNc1ccc(C(=O)NC(CCC(=O)O)C(=O)O)cc1` (configuration not stated), the GI50 [1] was 4.59 µM (inactive), the GI50 [2] was 1440 µM (inactive) and the GI50 [3] was 1330 µM (inactive). For the same molecule, the GI50 [4] was 45.4 µM (inactive), the GI50 [5] was 4.13 µM (inactive) and the GI50 [6] was 133 µM (inactive). For the same molecule, the GI50 [7] was 1410 µM (inactive), the GI50 [8] was 328 µM (inactive) and the GI50 [9] was 553 µM (inactive). The GI50 [10] was 1310 µM (inactive), the GI50 [11] was 112 µM (inactive) and the GI50 [12] was 10.3 µM (inactive). For the same molecule, the GI50 [13] was 1330 µM (inactive), the GI50 [14] was 891 µM (inactive) and the GI50 [15] was 1030 µM (inactive). For the same molecule, the GI50 [16] was 187 µM (inactive), the GI50 [17] was 2120 µM (inactive) and the GI50 [18] was 1030 µM (inactive). The GI50 [19] was 141 µM (inactive) and the GI50 [20] was 1120 µM (inactive).

`O=[N+]([O-])C1(CO)COC2(OC1)c1ccccc1-c1ccccc12` was tested, and the GI50 [1] was 63.8 µM (inactive), the GI50 [2] was > 53.6 µM (inactive) and the GI50 [3] was 40.5 µM (inactive). The GI50 [4] was > 81.3 µM (inactive), the GI50 [5] was 64.7 µM (inactive) and the GI50 [6] was > 100 µM (inactive). The GI50 [7] was 48.5 µM (inactive), the GI50 [8] was > 100 µM (inactive) and the GI50 [9] was > 100 µM (inactive). For the same molecule, the GI50 [10] was > 100 µM (inactive), the GI50 [11] was > 64 µM (inactive) and the GI50 [12] was 54.7 µM (inactive). The GI50 [13] was 39.4 µM (inactive), the GI50 [14] was 36 µM (inactive) and the GI50 [15] was > 89.1 µM (inactive). For the same molecule, the GI50 [16] was > 100 µM (inactive), the GI50 [17] was > 100 µM (inactive) and the GI50 [18] was 79.8 µM (inactive). For the same molecule, the GI50 [19] was 23.8 µM (inactive) and the GI50 [20] was > 100 µM (inactive).

With `O=[N+]([O-])c1cccc2nc3ccccc3c(NCCN(CCO)CCO)c12` the GI50 [1] was 0.00429 µM (active), the GI50 [2] was 0.00308 µM (active) and the GI50 [3] was 0.000904 µM (active). For the same molecule, the GI50 [4] was 0.00361 µM (active), the GI50 [6] was 0.00396 µM (active) and the GI50 [7] was 0.00296 µM (active). For the same molecule, the GI50 [8] was 0.0064 µM (active), the GI50 [9] was 0.00726 µM (active) and the GI50 [10] was 0.0397 µM (active). The GI50 [11] was 0.00143 µM (active), the GI50 [12] was 0.00338 µM (active) and the GI50 [13] was 0.00208 µM (active). For the same molecule, the GI50 [14] was 0.0069 µM (active), the GI50 [15] was 0.00578 µM (active) and the GI50 [16] was 0.00698 µM (active). The GI50 [17] was 0.00515 µM (active), the GI50 [19] was 0.00246 µM (active) and the GI50 [20] was 0.00192 µM (active).

`COc1ccc(/C=C2\CCC(CN(C)C)C2=O)cc1OC` (configuration not stated) was tested, and the GI50 [1] was 3.34 µM (inactive), the GI50 [2] was 5.43 µM (inactive) and the GI50 [3] was 2.07 µM (inactive). For the same molecule, the GI50 [4] was 7 µM (inactive), the GI50 [5] was 1.17 µM (inactive) and the GI50 [6] was 5.46 µM (inactive). For the same molecule, the GI50 [7] was 3.95 µM (inactive), the GI50 [8] was 4.8 µM (inactive) and the GI50 [9] was 8.49 µM (inactive). For the same molecule, the GI50 [10] was 11.5 µM (inactive), the GI50 [12] was 6.87 µM (inactive) and the GI50 [13] was 8.24 µM (inactive). For the same molecule, the GI50 [14] was 2.69 µM (inactive), the GI50 [15] was 13.1 µM (inactive) and the GI50 [16] was 15.1 µM (inactive). The GI50 [17] was 4.3 µM (inactive), the GI50 [18] was 5.41 µM (inactive) and the GI50 [19] was 1.28 µM (inactive). The GI50 [20] was 10.1 µM (inactive).
